“Also recorded” adds a separate entry of the source.
Columns and labels:
[1] = tested on: HeLa cells; assay: ER expansion visualization by KDEL immunostaining; assay type: cell-based, human; details: tannic acid 30 μM 24 h with YTK1105 2.5 μM 5 h or rapamycin 2 μM 18 h, FIGS. 5H, 5I
Description: FIG. 5H illustrates the immunostaining results of KDEL signals in HeLa cells treated with or without tannic acid (30 μM, 24 h) and with YTK1105 (2.5 μM, 5 h) or rapamycin (2 μM, 18 h) (scale bar, 10 μm),
To observe cellular localization of proteins, cells were cultured on cover slips coated with poly-L-lysine (Sigma). The cells were fixed with 4% paraformaldehyde in PBS (pH 7.4) for 15 min at room temperature and washed three times with PBS for 5 min. The cells were permeabilized with 0.5% Triton X-100 in PBS solution for 15 min and washed three times with PBS for 5 min. The cells were blocked with 2% BSA in PBS solution for 1 h at room temperature. After blocking, the cells were incubated overnight at 4° C. with a primary antibody diluted in 2% BSA/PBS solution. […] Confocal images were taken by a laser scanning confocal microscope 510 Meta (Zeiss) and analyzed by Zeiss LSM Image Browser (ver. 4.2.0.121).
Using confocal microscopy of cells analyzed by immunocytochemistry, ER expansion was visualized by considered when KDEL- or calnexin-labelled ER occupied more than 80% of cell area. Furthermore, the ER area was calculated by ImageJ (NIH, Bethesda, v1.52) and the background threshold was manually defined and set for all images. The ER area was calculated and marked from the total cell area as a fraction after borders of each cell were set.

[2] = tested on: HeLa cells; assay: Western blotting of ER stress and apoptosis in tannic acid-treated cells; assay type: cell-based, human; details: tannic acid 30 μM 24 h, YTK1105 5 μM 9 h, HCQ 10 μM 24 h, FIG. 5G
Description: FIG. 5G illustrates the Western blotting analysis results of HeLa cells treated with HCQ (10 μM, 24 h), YTK1105 (5 μM, 9 h), or both in the presence or absence of tannic acid (30 μM, 24 h),
(§1) Cell pellets were washed with phosphate-buffered saline (PBS) and lysed in an SDS-based sample buffer (277.8 mM Tris-HCl, pH 6.8, 4.4% LDS, 44.4% (v/v) glycerol) with beta-mercaptoethanol. Alternatively, cell pellets or protein supernatants were lysed in a 5× Laemmli sample buffer (SDS-based sample buffer). Using SDS-PAGE, whole cell lysates were separated and transferred onto polyvinylidene difluoride membranes at 100 V for 2 h at 4° C. Subsequently, the membrane was blocked with 4% skim milk in PBS solution for 30 min at room temperature and incubated overnight with primary antibodies (see Reference Example 4), followed by incubation with host-specific HRP-conjugated secondary antibodies (Jackson laboratory) (1:10000 dilution). For signal detection, a mixture of ECL solution (Thermo Fisher Scientific) was applied onto the membrane and captured using X-ray films.

[3] = tested on: BiP, PDI, TRIM13; assay: Immunoblotting of ER proteins under proteotoxic ER stress; assay type: cell-based, human; details: HeLa, MG132 2 μM 24 h, YOK1104 2.5 μM 4 h; FIG. 5F
Description: FIG. 5F illustrates the immunoblotting analysis results of HeLa cells treated with MG132 (2 μM, 24 h), YOK1104 (2.5 μM, 4 h), or both,
as §1

[4] = tested on: TRIM13; assay: In vivo oligomerization assay of TRIM13-flag (non-reducing SDS-PAGE); assay type: cell-based, human
Description: FIG. 4H illustrates the in vivo oligomerization assay results of TRIM13-flag in HEK293T cells treated with HCQ (10 μM, 24 h), tannic acid (30 μM, 24 h), or both,
FIG. 5L illustrates the In vivo oligomerization assay results of TRIM13-flag in HEK293T cells treated with MG132 (2 μM, 24 h) and with or without YOK1104 (2.5 μM, 4 h).
HEK293T cells were transfected with TRIM13-flag using Lipofectamine 2000 and treated with hydroxychloroquine (Sigma) for 24 h. To lyse the cells, the cells were subjected to a cycle of freezing/thawing and centrifuged at 13,000 g for 10 min after 30 min incubation on ice for supernatant collection. Protein concentration was measured using the Pierce BCA Protein Assay Kit (Thermo Fisher Scientific). Next, a non-reducing 4×LDS sample buffer was added to the sample lysate and followed by boiling at 100° C. for 10 min. The samples were loaded on a 3% stacking and 8% separating SDS-PAGE. Immunoblotting assays were performed using an anti-Flag antibody (Sigma) to visualize the oligomeric complexes of TRIM13.

[5] = target: T1, TRIM13-p62 complex (Homo sapiens, UniProt Q13501); assay: Co-IP with autophagy flux analysis using TRIM13 pulldown; assay type: cell-based; details: HEK293T p62-myc + TRIM13-flag
T1 construct: PCR amplification of a full-length human p62 cDNA fragment; expressed in transfected cells; host or cells: HEK293T
Description: FIG. 4I illustrates the Co-IP assay results in HEK293T cells treated with HCQ (10 μM, 24 h), tannic acid (30 μM, 24 h), or both, and co-transfected (24 h) with p62-myc and TRIM13-flag,
FIG. 5K illustrates the Co-IP assay results in HEK293T cells co-transfected with p62-myc and TRIM13-flag (24 h) or transfected with negative control empty vector (EV) and treated with HCQ (10 μM, 24 h), YOK1104 (2.5 μM, 4 h), or both, and
To test protein interaction, co-immunoprecipitation assays were performed. For exogenous co-IP, HEK293T cells were transfected with recombinant p62, BiP, TRIM13, reticulophagy regulator 1 (FAM134B), reticulon 3 (RTN3) or ATZ (Z variant E342K) using Lipofectamine 2000. The cell pellets were scraped and pelleted by centrifugation, resuspended and lysed in an immunoprecipitation buffer (IP buffer) [50 mM Tris-HCl pH 7.5, 150 mM NaCl, 0.5% Triton X-100, 1 mM EDTA, 1 mM phenylmethylsulfonyl fluoride (PMSF; Roche) and protease inhibitor cocktail (Sigma)] on a rotor at 4° C. for 30 min. Next, the supernatant and remaining pellets were passed through a 26-gauge 1 mL syringe 15 times and centrifuged at 13,000 g at 4° C. and collected for the supernatant, to which normal mouse IgG (Santa Cruz) and Protein A/G-Plus agarose beads (Santa Cruz) were added to preclear the lysate on a rotor at 4° C. overnight. The cell lysate was then incubated with M2 FLAG-affinity Gel agarose beads (Sigma) on a rotor at 4° C. for 3 h. The gel beads were washed four times with IP buffer, resuspended in 2× Laemmli Sample Buffer, separated by SDS-PAGE and analyzed by immunoblotting with specified antibodies.

[6] = tested on: TRIM13; assay: Autophagy flux assay of TRIM13-flag with bafilomycin A1; assay type: cell-based, human; details: HeLa TRIM13-flag, 2.5 μM 4 h, with or without bafilomycin A1 200 nM 6 h; FIG. 11M
Description: FIG. 11M illustrates the Western blotting results of HeLa cells transfected with TRIM13-flag or negative control empty vector (EV), treated with YOK1104 (2.5 μM, 4 h), and treated with or without bafilomycin A1 (200 nM, 6 h),
as §1

[7] = tested on: HEK293T cells; assay: Transmission electron microscopy of treated cells; assay type: cell-based, human; details: 2.5 μM, 6 h vs DMSO, FIG. 5E
Description: FIG. 5E is a transmission electron microscopy image of HEK293T cells treated with YOK1104 (2.5 μM, 6 h) or DMSO (control), where arrows indicate autolysosomes and asterisks indicate ER fragments inside autolysosomes (scale bars, 500 nm (1st & 2nd column), 200 nm (3rd column)),
For conventional transmission electron microscopy, HEK293T cells were treated with 2.5 μM YOK1104 for 6 h, scraped from culture dish and pelleted by centrifugation. The pellets were resuspended in 2.5% glutaraldeyhyde in 0.1 M sodium cacodylate buffer (pH 7.4) (Electron Microscopy Sciences) for overnight at 4° C. The fixative was replaced by a cacodylate buffer for the last 6 h, after which the cells were embedded in Epon resin. Subsequently, the cells were cut into 55-nm sections and stained with uranyl acetate and lead citrate using the Reichert Ultracut S Ultramicrotome (Leica Microsystems) and FEI Vitrobot Mark IV (Thermo Scientific), respectively. The cell sections were observed using the 200 kV transmission electron microscope FEI Tecnai G2-F20 (Thermo Scientific).

[8] = tested on: TRIM13; assay: Immunoblotting of ER protein in tannic acid-treated cells; assay type: cell-based, human; details: HeLa, tannic acid 30 μM 24 h; FIG. 8E
Description: FIG. 8E illustrates the immunoblotting results of ER protein in HeLa cells treated with tannic acid (30 μM, 24 h),
as §1

[9] = tested on: HeLa cells; assay: Immunocytochemistry co-localization analysis of ER markers (calnexin, KDEL) with p62 and LC3; assay type: cell-based, human; details: tannic acid 30 μM 24 h, HCQ 10 μM 24 h
Description: FIG. 2C is a fluorescence image illustrating the co-localization analysis results of p62 and calnexin in HeLa cells treated with HCQ (10 μM, 24 h), tannic acid (30 μM, 24 h) or both (scale bar, 10 μm),
FIG. 2E is a fluorescence image illustrating the co-localization analysis results of KDEL and LC3 in HeLa cells treated with HCQ (10 μM, 24 h), tannic acid (30 μM, 24 h) or both (scale bar, 10 μm),
FIG. 5C is a fluorescence image illustrating the co-localization analysis results of calnexin, p62 and LC3-GFP puncta structures in HeLa cells transfected with LC3-GFP and treated with YTK1105 (2.5 μM, 9 h) (scale bar, 10 μm),
FIG. 11E illustrates the co-localization analysis results of p62, KDEL and LC3-GFP in HeLa cells transiently transfected with LC3-GFP and treated with YTK1105 (2.5 μM, 5 h) (scale bar, 10 μm), […]
To observe cellular localization of proteins, cells were cultured on cover slips coated with poly-L-lysine (Sigma). […] Confocal images were taken by a laser scanning confocal microscope 510 Meta (Zeiss) and analyzed by Zeiss LSM Image Browser (ver. 4.2.0.121).
Quantification results are expressed as the mean+/−S.D. value of three independent test results. […] The P-values were determined using ANOVA with two-tailed student's t-test (degree of freedom=n−1) or Prism 6 software (GraphPad). The statistical significance was determined as values of p<0.05 (***p<0.001; **p<0.01; *p<0.05).

Row | turnover of TRIM13 and its complex with p62 ([5]; tannic acid 30 μM 24 h, HCQ 10 μM 24 h, FIG. 4I) | binding of p62 to TRIM13 ([5]; tannic acid 30 μM 24 h, FIG. 4I) | Structure (SMILES) | ER morphology (swelling), KDEL signals [1] | rescue from ER stress and apoptosis [2] | degradation of BiP, PDI and TRIM13 following up-modulation by proteotoxic ER stress [3] | degradation of oligomeric vs monomeric species of TRIM13 ([4]; HEK293T, MG132 2 μM 24 h, YOK1104 2.5 μM 4 h, FIG. 5L) | autophagic degradation of the TRIM13-p62 complex ([5]; YOK1104 2.5 μM 4 h, HCQ 10 μM 24 h, FIG. 5K) | autophagic degradation of TRIM13 [6] | delivery of ER compartments to autolysosomes; autophagosomes and autolysosomes by transmission electron microscopy [7] | TRIM13 protein level (autophagic degradation) [8] | oligomeric status of TRIM13 ([4]; HEK293T TRIM13-flag, tannic acid 30 μM 24 h, HCQ 10 μM 24 h, FIGS. 4H, 9L) | localization of p62 puncta to calnexin signals (targeting of p62 to the ER) ([9]; FIGS. 2C, 2D) | autophagic targeting of KDEL+ proteins (KDEL-LC3 co-localization) ([9]; FIGS. 2E, 2F)
1 | – | – | Cl.OCCNCc1ccc(OCc2ccccc2)c(OCc2ccccc2)c1 [YTK1105, 2-((3,4-bis(benzyloxy)benzyl)amino)ethan-1-ol hydrochloride] | readily restored | rescued tannic acid-treated cells from ER stress and apoptosis in an autophagy-dependent manner | – | – | – | – | – | – | – | – | –
2 | – | – | CC(C)NC[C@@H](O)COc1ccc(OCc2ccccc2)c(OCc2ccccc2)c1 [YOK1104, (R)-1-(3,4-bis(benzyloxy)phenoxy)-3-(isopropylamino)propan-2-ol] | – | – | readily facilitated the degradation of BiP and PDI as well as TRIM13 | selectively induced the degradation of oligomeric species but not that of monomeric species of TRIM13 | enhanced autophagic degradation of the TRIM13-p62 complex | drove TRIM13 to autophagic degradation | readily exhibited an abundance of autophagosomes and autolysosomes; also recorded: displayed the accumulation of ER fragments within their interior | – | – | – | –
3 | became metabolically stabilized | p62 normally bound to TRIM13 | O=C(OC[C@H]1O[C@@H](OC(=O)c2cc(O)c(O)c(OC(=O)c3cc(O)c(O)c(O)c3)c2)[C@H](OC(=O)c2cc(O)c(O)c(OC(=O)c3cc(O)c(O)c(O)c3)c2)[C@@H](OC(=O)c2cc(O)c(O)c(OC(=O)c3cc(O)c(O)c(O)c3)c2)[C@@H]1OC(=O)c1cc(O)c(O)c(OC(=O)c2cc(O)c(O)c(O)c2)c1)c1cc(O)c(O)c(OC(=O)c2cc(O)c(O)c(O)c2)c1 [tannic acid] | the ER spontaneously swelled into abnormal morphology | – | – | – | – | – | – | stabilized | TRIM13 lost its oligomeric status, leading to the uncontrolled formation of aggregates | p62 punctate signals were delocalized from calnexin signals | abolished
